Key:
[1] = tested on: L-carnitine dehydrogenase; assay: Substrate specificity of L-carnitine dehydrogenase; format: biochemical; conditions: L-carnitine dehydrogenase from Alcaligenes sp. No. 981
Method: 1 ml of the reaction solution was placed in a small test tube and incubated at 37° C. for 5 mins. and thereto was added 0.02 ml of the […] solution to be examined, to cause the reaction, with agitation. After 10 mins. 2 ml of 0.1N aq. HCl were added thereto to terminate the reaction and the A550 nm of the solution was measured to obtained the absorbance A1.
On the other hand, the same procedures were repeated for a reaction solution in which the L-carnitine was omitted, to obtain the absorbance A0.

[2] = tested on: L-carnitine dehydrogenase; assay: Km values and coenzyme reactivity of L-carnitine dehydrogenase; format: biochemical, Alcaligenes sp. No. 981; conditions: for Km: L-carnitine dehydrogenase, 100 mM tris-HCl buffer pH 9.0
Method: The L-carnitine dehydrogenase used in preparing the analysis reagent for determining the amount of L-carnitine, should have reactivity to the substrate, namely, L-carnitine, and may be employed in combination with a coenzyme such as an NAD (preferably NAD or thio-NAD). Such reactivity can be confirmed using the combination of such coenzyme with the substrate. For example, it has been confirmed that, when using L-carnitine as the substrate and thio-NAD as the coenzyme in 100 mM tris-HCl buffer solution (pH 9.0), the L-carnitine dehydrogenase produced from Alcaligenes sp.
Km value for NAD^+ was determined by varying the concentration of the NAD^+ in a reaction solution containing 100 mM tris-HCl buffer solution (pH 9.0). 5 units of diaphorase (a product of Toyo Jozo), 0.025% of NBT (a product of Wako Pure Chemical Ind.), 1% of Tween 80 (a product of Wako Pure Chemical Ind.) and 50 mM L-carnitine, whereby a value of 0.141 mM was obtained.

Compound | enzymatic activity relative to the activity when using NAD as the coenzyme ([2]; L-carnitine as substrate, 100 mM tris-HCl pH 9.0) | Km [2] | Relative Specificity % [1] | Km ([2]; listed as NAD^+)
C[N+](C)(C)CC(=O)[O-] [Glycinebetaine] | – | – | 0% | –
NCCCC[C@H](N)C(=O)O [Lysine] | – | – | 0% | –
Glucose | – | – | 0% | –
NC(=O)c1ccc[n+]([C@@H]2O[C@H](COP(=O)([O-])OP(=O)(O)OC[C@H]3O[C@@H](n4cnc5c(N)ncnc54)[C@H](O)[C@@H]3O)[C@@H](O)[C@H]2O)c1 [NAD, nicotinamide adenine dinucleotide] | – | 140 µM | – | 141 µM

Continued, in another order:

enzymatic activity relative to the activity when using NAD as the coenzyme ([2]; L-carnitine as substrate, 100 mM tris-HCl pH 9.0) | Km [2] | Compound | Relative Specificity % [1] | Km ([2]; listed as NAD^+)
about 15% | 490 µM | NC(=S)c1ccc[n+]([C@@H]2O[C@H](COP(=O)([O-])OP(=O)(O)OC[C@H]3O[C@@H](n4cnc5c(N)ncnc54)[C@H](O)[C@@H]3O)[C@@H](O)[C@H]2O)c1 [thio-NAD, thionicotinamide adenine dinucleotide] | – | –
– | 9300 µM | C[N+](C)(C)C[C@H](O)CC(=O)[O-] [L-carnitine] | 100% | –
